Test results taken from US20260124214A1, “HETEROCYCLIC COMPOUNDS FOR USE IN THE TREATMENT OF CANCER” (ARTIOS PHARMA LIMITED, priority 2021, published 2026).
Structures can show the parent of a compound that is named as a salt.

Biological target: T1, Human Polθ polymerase domain (aa1820-2590) (Homo sapiens, UniProt O75417)
T1 construct: Human Polθ polymerase domain (aa1820-2590) was expressed in E. Coli; made in house; host or cells: E. coli
T1 sequence (O75417 1820-2590): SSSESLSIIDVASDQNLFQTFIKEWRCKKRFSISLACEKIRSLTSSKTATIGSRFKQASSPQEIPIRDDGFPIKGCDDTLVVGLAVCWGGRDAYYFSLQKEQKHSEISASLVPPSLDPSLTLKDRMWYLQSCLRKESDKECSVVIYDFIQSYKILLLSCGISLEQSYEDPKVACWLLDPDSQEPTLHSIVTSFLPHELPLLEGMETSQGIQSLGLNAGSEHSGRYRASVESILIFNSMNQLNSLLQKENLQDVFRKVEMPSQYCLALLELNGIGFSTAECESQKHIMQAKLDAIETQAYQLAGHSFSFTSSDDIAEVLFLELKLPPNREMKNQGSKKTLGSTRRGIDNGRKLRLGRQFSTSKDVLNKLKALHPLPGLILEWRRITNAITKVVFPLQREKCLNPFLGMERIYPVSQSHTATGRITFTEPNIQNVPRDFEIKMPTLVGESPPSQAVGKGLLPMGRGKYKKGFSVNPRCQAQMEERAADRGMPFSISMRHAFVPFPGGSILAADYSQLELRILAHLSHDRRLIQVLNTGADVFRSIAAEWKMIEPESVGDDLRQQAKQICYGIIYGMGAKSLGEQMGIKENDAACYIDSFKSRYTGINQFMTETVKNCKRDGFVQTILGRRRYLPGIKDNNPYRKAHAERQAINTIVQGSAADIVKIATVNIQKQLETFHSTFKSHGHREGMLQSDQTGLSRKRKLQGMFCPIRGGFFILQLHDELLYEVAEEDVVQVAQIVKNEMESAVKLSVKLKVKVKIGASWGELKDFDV
Assay: Polθ Polymerase Domain WT KI Assay (PicoGreen)
Format: biochemical
Settings: 100 nM DNA substrate, 0.156 nM Polθ, initial rates vs inhibitor concentration
Outline: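 E. coli-expressed human Polθ polymerase domain (aa1820-2590) on annealed DNA II Short/Long primer-template (1.2:1), in 25 mM Tris pH 7.5, NaCl, 5% glycerol, 0.01% Triton X-100, 0.1 mg/ml BSA, 1 mM DTT, 1% DMSO. EDTA-quenched timepoints to 180 min, PicoGreen fluorescence. Initial rates vs inhibitor concentration fitted four-parameter for KI.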

Structure (SMILES)	Ki
Cc1cc(C(F)(F)F)cc(N2C(=O)C[C@@H]3CN(CC4CCN(C)CC4)c4c(Cl)cccc4N(C)C(=O)[C@H]32)n1 [Example 84, (3aR,11aS)-6-Chloro-10-methyl-1-(6-methyl-4-(trifluoromethyl)pyridin-2-yl)-5-((1-methylpiperidin-4-yl)methyl)-1,3a,4,5,10,11a-hexahydro-2H-benzo[b]pyrrolo[2,3-f][1,4]diazocine-2,11(3H)-dione]	2.54 nM
Cc1cc(C(F)(F)F)cc(N2C(=O)C[C@@H]3CN(C[C@@H]4CCCCN4)c4c(Cl)cccc4N(C)C(=O)[C@H]32)n1 (racemic) [Example 105b, (3aR,11aS)-6-Chloro-10-methyl-1-(6-methyl-4-(trifluoromethyl)pyridin-2-yl)-5-(((S/R)-piperidin-2-yl)methyl)-1,3a,4,5,10,11a-hexahydro-2H-benzo[b]pyrrolo[2,3-f][1,4]diazocine-2,11(3H)-dione]	2.98 nM
Cc1cc(C(F)(F)F)cc(N2C(=O)C[C@@H]3CN(CCCN(C)C)c4c(Cl)cccc4N(C)C(=O)[C@H]32)n1 [Example 135, (3aR,11aS)-6-Chloro-5-(3-(dimethylamino)propyl)-10-methyl-1-(6-methyl-4-(trifluoromethyl)pyridin-2-yl)-1,3a,4,5,10,11a-hexahydro-2H-benzo[b]pyrrolo[2,3-f][1,4]diazocine-2,11(3H)-dione]	3.49 nM
C=CCN1C[C@H]2CC(=O)N(c3cc(C(F)(F)F)cc(C)n3)[C@@H]2C(=O)N(C)c2cccc(Cl)c21 [Example 5, (3aR,11aS)-5-Allyl-6-chloro-10-methyl-1-(6-methyl-4-(trifluoromethyl)pyridin-2-yl)-1,3a,4,5,10,11a-hexahydro-2H-benzo[b]pyrrolo[2,3-f][1,4]diazocine-2,11(3H)-dione]	1.49 nM
Cc1cc(C(F)(F)F)cc(N2C(=O)C[C@@H]3CN(CC4CCN(C5COC5)CC4)c4c(Cl)cccc4N(C)C(=O)[C@H]32)n1 [Example 85, (3aR,11aS)-6-Chloro-10-methyl-1-(6-methyl-4-(trifluoromethyl)pyridin-2-yl)-5-((1-(oxetan-3-yl)piperidin-4-yl)methyl)-1,3a,4,5,10,11a-hexahydro-2H-benzo[b]pyrrolo[2,3-f][1,4]diazocine-2,11(3H)-dione]	0.622 nM
Cc1cc(C(F)(F)F)cc(N2C(=O)C[C@@H]3CN(Cc4cn5c(n4)CN(C)CC5)c4c(C)cccc4N(C)C(=O)[C@H]32)n1 [Example 121, (3aR,11aS)-6,10-Dimethyl-1-(6-methyl-4-(trifluoromethyl)pyridin-2-yl)-5-((7-methyl-5,6,7,8-tetrahydroimidazo[1,2-a]pyrazin-2-yl)methyl)-1,3a,4,5,10,11a-hexahydro-2H-benzo[b]pyrrolo[2,3-f][1,4]diazocine-2,11(3H)-dione]	0.258 nM
Cc1cc(C(F)(F)F)cc(N2C(=O)C[C@@H]3CN(C[C@H]4COCCN4)c4c(C)cccc4N(C)C(=O)[C@H]32)n1 (racemic) [Example 112b, (3aR,11aS)-6,10-Dimethyl-1-(6-methyl-4-(trifluoromethyl)pyridin-2-yl)-5-(((S/R)-morpholin-3-yl)methyl)-1,3a,4,5,10,11a-hexahydro-2H-benzo[b]pyrrolo[2,3-f][1,4]diazocine-2,11(3H)-dione]	1.81 nM
Cc1cc(C(F)(F)F)cc(N2C(=O)C[C@@H]3CN(Cc4ccncc4)c4c(C)cccc4N(C)C(=O)[C@H]32)n1 [Example 114, (3aR,11aS)-6,10-Dimethyl-1-(6-methyl-4-(trifluoromethyl)pyridin-2-yl)-5-(pyridin-4-ylmethyl)-1,3a,4,5,10,11a-hexahydro-2H-benzo[b]pyrrolo[2,3-f][1,4]diazocine-2,11(3H)-dione]	1.64 nM
CC(=O)N1CCN(CCN2C[C@H]3CC(=O)N(c4cc(C(F)(F)F)cc(C)n4)[C@@H]3C(=O)N(C)c3cccc(C)c32)[C@@H](C)C1 [Example 74, (3aR,11aS)-5-(2-((S)-4-Acetyl-2-methylpiperazin-1-yl)ethyl)-6,10-dimethyl-1-(6-methyl-4-(trifluoromethyl)pyridin-2-yl)-1,3a,4,5,10,11a-hexahydro-2H-benzo[b]pyrrolo[2,3-f][1,4]diazocine-2,11(3H)-dione]	1.21 nM
Cc1cc(C(F)(F)F)cc(N2C(=O)C[C@@H]3CN(CCN4CC5CCC(C4)N5C)c4c(C)cccc4N(C)C(=O)[C@H]32)n1 [Example 60, (3aR,11aS)-6,10-Dimethyl-5-(2-(8-methyl-3,8-diazabicyclo[3.2.1]octan-3-yl)ethyl)-1-(6-methyl-4-(trifluoromethyl)pyridin-2-yl)-1,3a,4,5,10,11a-hexahydro-2H-benzo[b]pyrrolo[2,3-f][1,4]diazocine-2,11(3H)-dione dihydrochloride]	0.625 nM
Cc1cc(C(F)(F)F)cc(N2C(=O)C[C@@H]3CN(CCN4C[C@H]5C[C@@H]4CN5C)c4c(C)cccc4N(C)C(=O)[C@H]32)n1 [Example 61, (3aR,11aS)-6,10-Dimethyl-5-(2-((1R,4R)-5-methyl-2,5-diazabicyclo[2.2.1]heptan-2-yl)ethyl)-1-(6-methyl-4-(trifluoromethyl)pyridin-2-yl)-1,3a,4,5,10,11a-hexahydro-2H-benzo[b]pyrrolo[2,3-f][1,4]diazocine-2,11(3H)-dione dihydrochloride]	0.759 nM
Cc1cc(C(F)(F)F)cc(N2C(=O)C[C@@H]3CN(CC(C)O)c4c(Cl)cccc4N(C)C(=O)[C@H]32)n1 (mixture of isomers) [Example 131a, (3aR,11aS)-6-chloro-5-((S/R)-2-hydroxypropyl)-10-methyl-1-(6-methyl-4-(trifluoromethyl)pyridin-2-yl)-1,3a,4,5,10,11a-hexahydro-2H-benzo[b]pyrrolo[2,3-f][1,4]diazocine-2,11(3H)-dione]	1.99 nM
Cc1cc(C(F)(F)F)cc(N2C(=O)C[C@@H]3CN(C[C@H]4CCN(C)[C@@H](C)C4)c4c(Cl)cccc4N(C)C(=O)[C@H]32)n1 (single isomer, unassigned) [Example 126a]	1.56 nM
Cc1cc(C(F)(F)F)cc(N2C(=O)C[C@@H]3CN(CC4CCCNC4)c4c(Cl)cccc4N(C)C(=O)[C@H]32)n1 (stereo partly drawn) [Example 110, (3aR,11aS)-6-Chloro-10-methyl-1-(6-methyl-4-(trifluoromethyl)pyridin-2-yl)-5-(piperidin-3-ylmethyl)-1,3a,4,5,10,11a-hexahydro-2H-benzo[b]pyrrolo[2,3-f][1,4]diazocine-2,11(3H)-dione]	2.08 nM
Cc1cc(C(F)(F)F)cc(N2C(=O)C[C@@H]3CN(C[C@@H]4CNCCO4)c4c(Cl)cccc4N(C)C(=O)[C@H]32)n1 (racemic) [Example 109b, (3aR,11aS)-6-Chloro-10-methyl-1-(6-methyl-4-(trifluoromethyl)pyridin-2-yl)-5-(((S/R)-morpholin-2-yl)methyl)-1,3a,4,5,10,11a-hexahydro-2H-benzo[b]pyrrolo[2,3-f][1,4]diazocine-2,11(3H)-dione]	2.02 nM
Cc1cc(C(F)(F)F)cc(N2C(=O)C[C@@H]3CN(CCN4CCC(F)(F)C4)c4c(Cl)cccc4N(C)C(=O)[C@H]32)n1 [Example 23, (3aR,11aS)-6-Chloro-5-(2-(3,3-difluoropyrrolidin-1-yl)ethyl)-10-methyl-1-(6-methyl-4-(trifluoromethyl)pyridin-2-yl)-1,3a,4,5,10,11a-hexahydro-2H-benzo[b]pyrrolo[2,3-f][1,4]diazocine-2,11(3H)-dione]	1.48 nM
Cc1cc(C(F)(F)F)cc(N2C(=O)CC3CN(C4CC(OCc5ccccc5)C4)c4c(F)cccc4N(C)C(=O)C32)n1 (single isomer, unassigned) [Example 92a]	9.06 nM
CC(=O)N1CCN(CCN2C[C@H]3CC(=O)N(c4cc(C(F)(F)F)cc(C)n4)[C@@H]3C(=O)N(C)c3cccc(C)c32)CC1 [Example 55, (3aR,11aS)-5-(2-(4-Acetylpiperazin-1-yl)ethyl)-6,10-dimethyl-1-(6-methyl-4-(trifluoromethyl)pyridin-2-yl)-1,3a,4,5,10,11a-hexahydro-2H-benzo[b]pyrrolo[2,3-f][1,4]diazocine-2,11(3H)-dione hydrochloride]	0.891 nM
Cc1cc(C(F)(F)F)cc(N2C(=O)C[C@@H]3CN(CCN4CCN[C@H](C)C4)c4c(Cl)cccc4N(C)C(=O)[C@H]32)n1 [Example 9, (3aR,11aS)-6-Chloro-10-methyl-1-(6-methyl-4-(trifluoromethyl)pyridin-2-yl)-5-(2-((R)-3-methylpiperazin-1-yl)ethyl)-1,3a,4,5,10,11a-hexahydro-2H-benzo[b]pyrrolo[2,3-f][1,4]diazocine-2,11(3H)-dione]	1.4 nM
